According to patent publication US8367838B2, “Amines or amino alcohols as GLYT1 inhibitors” (Hoffmann-La Roche Inc., priority 2009, dated 2013):
Where a name gives a salt, the structure may show the parent alone.

Target: T1, mGlyT-1b (Mus musculus, UniProt P28571)
T1 construct: host or cells: Flp-in-CHO
T1 sequence (P28571 1-651 isoform P28571-2): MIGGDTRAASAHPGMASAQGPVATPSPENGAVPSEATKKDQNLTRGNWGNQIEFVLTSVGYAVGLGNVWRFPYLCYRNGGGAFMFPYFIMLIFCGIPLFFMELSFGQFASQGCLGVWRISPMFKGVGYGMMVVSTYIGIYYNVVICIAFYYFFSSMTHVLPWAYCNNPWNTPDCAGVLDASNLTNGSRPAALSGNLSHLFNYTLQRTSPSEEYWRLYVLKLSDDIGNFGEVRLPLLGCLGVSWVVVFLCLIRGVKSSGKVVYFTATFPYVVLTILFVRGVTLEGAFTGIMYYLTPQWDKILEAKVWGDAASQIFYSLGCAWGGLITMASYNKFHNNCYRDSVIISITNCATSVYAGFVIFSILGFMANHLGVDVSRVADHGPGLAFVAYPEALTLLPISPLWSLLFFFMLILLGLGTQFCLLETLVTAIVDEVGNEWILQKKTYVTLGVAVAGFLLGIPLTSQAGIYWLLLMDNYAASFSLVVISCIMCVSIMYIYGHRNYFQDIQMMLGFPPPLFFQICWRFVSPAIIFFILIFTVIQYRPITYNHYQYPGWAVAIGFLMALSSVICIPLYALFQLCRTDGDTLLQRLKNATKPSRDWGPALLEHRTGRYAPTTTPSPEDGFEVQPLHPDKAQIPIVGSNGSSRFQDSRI
Assay: Glycine uptake inhibition assay (mGlyT-1b), [3H]-glycine uptake in transfected Flp-in-CHO cells
Format: cell-based
Conditions: Flp-in-CHO cells transfected with mGlyT-1b cDNA; [3H]-glycine 60 nM and 25 μM non-radioactive glycine; 20 min preincubation at 22° C.; read-out: IC50 (μM) at GlyT-1; Ic50 (hglyt1b)
Experimental: Nutrient mixture F-12 (Gibco Life-technologies), fetal bovine serum (FBS) 5%, (Gibco life technologies), Penicillin/Streptomycin 1% (Gibco life technologies), Hygromycin 0.6 mg/ml (Gibco life technologies), Glutamine 1 mM Gibco life technologies).
150 mM NaCl, 10 mM Hepes-Tris, pH 7.4, 1 mM CaCl2, 2.5 mM KCl, 2.5 mM MgSO4, 10 mM (+) D-glucose. Flp-in™-CHO (Invitrogen Cat n° R758-07) cells stably transfected with mGlyT1b cDNA.
Glycine Uptake Inhibition Assay (mGlyT-1b)
On day 1 mammalian cells, (Flp-in™-CHO), transfected with mGlyT-1b cDNA, were plated at the density of 40,000 cells/well in complete F-12 medium, without hygromycin in 96-well culture plates. On day 2, the medium was aspirated and the cells were washed twice with uptake buffer (UB). The cells were then incubated for 20 min at 22° C. with either (i) no potential competitor, (ii) 10 mM non-radioactive glycine, (iii) a concentration of a potential inhibitor. A range of concentrations of the potential inhibitor was used to generate data for calculating the concentration of inhibitor resulting in 50% of the effect (e.g. IC50, the concentration of the competitor inhibiting glycine uptake of 50%). A solution was then immediately added containing [^3H]-glycine 60 nM (11-16 Ci/mmol) and 25 μM non-radioactive glycine. The plates were incubated with gentle shaking and the reaction was stopped by aspiration of the mixture and washing (three times) with ice-cold UB. The cells were lysed with scintillation liquid, shaken 3 hours and the radioactivity in the cells was counted using a scintillation counter.

SMILES | IC50
Cc1cc([C@H](N)[C@H](O)c2ccc(-c3cccnc3)cc2)ccc1Cl (racemic) [Example 86, rac-erythro-2-Amino-2-(4-chloro-3-methyl-phenyl)-1-(4-pyridin-3-yl-phenyl)-ethanol] | 0.049 µM
N[C@@H](c1ccc(Cl)c(Cl)c1)[C@H](O)c1ccc(OCC2CC2)cc1 (racemic) [Example 49, rac-erythro-[2-Amino-1-(4-cyclopropylmethoxy-phenyl)-2-(3,4-dichloro-phenyl)-ethanol] | 0.533 µM
CC(C)Oc1ccc([C@@H](O)[C@@H](N)c2ccc(Cl)cc2)cc1 (racemic) [Example 10, rac-erythro-[2-Amino-2-(4-chloro-phenyl)-1-(4-isopropoxy-phenyl)-ethanol hydrochloride] | 0.188 µM
Cc1ccccc1-c1ccc([C@@H](O)[C@@H](N)c2ccc(Cl)cc2)cc1 (racemic) [Example 76, rac-erythro-2-Amino-2-(4-chloro-phenyl)-1-(2′-methyl-biphenyl-4-yl)-ethanol] | 0.642 µM
COCc1cccc(-c2ccc([C@@H](O)[C@@H](N)c3ccc(Cl)cc3)cc2)c1 (racemic) [Example 60, rac-erythro-2-Amino-2-(4-chloro-phenyl)-1-(3′-methoxymethyl-biphenyl-4-yl)-ethanol hydrochloride] | 0.261 µM
N[C@@H](c1ccc(Cl)c(F)c1)[C@H](O)c1ccc(-c2cncc(F)c2)cc1 (racemic) [Example 85, rac-erythro-2-Amino-2-(4-chloro-3-fluoro-phenyl)-1-[4-(5-fluoro-pyridin-3-yl)-phenyl]-ethanol] | 0.095 µM
COc1cc(-c2cncc(F)c2)ccc1[C@@H](O)[C@@H](N)c1ccc(Cl)c(Cl)c1 (racemic) [Example 4, rac-erythro-[2-Amino-2-(3,4-dichloro-phenyl)-1-[4-(5-fluoro-pyridin-3-yl)-2-methoxy-phenyl]-ethanoldihydrochloride] | 0.346 µM
N[C@@H](c1ccc(Cl)c(Cl)c1)[C@H](O)c1ccc(-c2cncc(F)c2)cc1 (racemic) [Example 83, rac-erythro-2-Amino-2-(3,4-dichloro-phenyl)-1-[4-(5-fluoro-pyridin-3-yl)-phenyl]-ethanol] | 0.059 µM
Cc1ccc([C@H](N)[C@H](O)c2ccc(-c3cccnc3)cc2)cc1F (racemic) [Example 91, rac-erythro-2-Amino-2-(3-fluoro-4-methyl-phenyl)-1-(4-pyridin-3-yl-phenyl)-ethanol] | 0.073 µM
N[C@@H](c1ccc(Cl)c(Cl)c1)[C@H](O)c1ccc(OC(F)(F)C(F)F)cc1 (racemic) [Example 38, rac-erythro-[2-Amino-2-(3,4-dichlorophenyl)-1-[4-(1,1,2,2-tetrafluoro-ethoxy)-phenyl]-ethanol] | 0.176 µM
Cc1cc(OC2CCOC2)ncc1[C@@H](O)[C@@H](N)c1ccc(Cl)c(Cl)c1 (mixture of isomers) [Example 24, rac-erythro-[(rac)-2-Amino-2-(3,4-dichloro-phenyl)-1-[4-methyl-6-(tetrahydro-furan-3-yloxy)-pyridin-3-yl]-ethanoldihydrochloride] | 0.205 µM
N[C@@H](c1ccc(Cl)cc1)[C@H](O)c1ccc(OC2CCCOC2)cc1 (mixture of isomers) [Example 9, rac-erythro-[2-Amino-2-(4-chloro-phenyl)-1-[4-(tetrahydro-pyran-3-yloxy)-phenyl]-ethanol] | 0.138 µM
CC(C)Oc1cccc(-c2ccc([C@@H](O)[C@@H](N)c3ccc(Cl)c(Cl)c3)cc2)c1 (racemic) [Example 106, rac-erythro-2-Amino-2-(3,4-dichloro-phenyl)-1-(3′-isopropoxy-biphenyl-4-yl)-ethanol] | 0.851 µM
N[C@@H](c1ccc(Cl)cc1)[C@H](O)c1ccc(-c2cccc(Cl)c2)cc1 (racemic) [Example 74, rac-erythro-2-Amino-1-(3′-chloro-biphenyl-4-yl)-2-(4-chloro-phenyl)-ethanol] | 0.544 µM
Cc1cc(OC(C)C)ncc1[C@@H](O)[C@@H](N)c1ccc(Cl)c(Cl)c1 (racemic) [Example 30, rac-erythro-[2-Amino-2-(3,4-dichloro-phenyl)-1-(6-isopropoxy-4-methyl-pyridin-3-yl)-ethanoldihydrochloride] | 0.577 µM
N[C@@H](c1ccc(Cl)cc1)[C@H](O)c1ccc(OCC(F)(F)C(F)(F)F)cc1F (racemic) [Example 101, rac-erythro-2-Amino-2-(4-chloro-phenyl)-1-[2-fluoro-4-(2,2,3,3,3-pentafluoro-propoxy)-phenyl]-ethanol] | 0.334 µM
N[C@@H](c1ccc(Cl)cc1)[C@H](O)c1ccc(-c2ccncc2)cc1 (racemic) [Example 61, rac-erythro-2-Amino-2-(4-chloro-phenyl)-1-(4-pyridin-4-yl-phenyl)-ethanol] | 0.06 µM
CC(C)Oc1ccc([C@@H](O)[C@@H](N)c2ccc(Cl)c(Cl)c2)nc1 (racemic) [Example 32, rac-erythro-[2-Amino-2-(3,4-dichloro-phenyl)-1-(5-isopropoxy-pyridin-2-yl)-ethanoldihydrochloride] | 0.842 µM
CC(C)COc1ccc([C@@H](O)[C@@H](N)c2ccc(Cl)c(Cl)c2)cc1 (racemic) [Example 50, rac-erythro-2-Amino-2-(3,4-dichloro-phenyl)-1-(4-isobutoxy-phenyl)-ethanol] | 0.549 µM
N[C@@H](c1ccc(Cl)cc1)[C@H](O)c1ccc(-c2cccc(C(F)(F)F)c2)cc1 (racemic) [Example 79, rac-erythro-2-Amino-2-(4-chloro-phenyl)-1-(3′-trifluoromethyl-biphenyl-4-yl)-ethanol] | 0.93 µM
CN(C)c1cccc(-c2ccc([C@@H](O)[C@@H](N)c3ccc(Cl)c(Cl)c3)cc2)c1 (racemic) [Example 89, rac-erythro-2-Amino-2-(3,4-dichloro-phenyl)-1-(3′-dimethylamino-biphenyl-4-yl)-ethanol] | 0.305 µM
N[C@@H](c1ccc(Cl)c(Cl)c1)[C@H](O)c1ccc(OCC(F)(F)F)cc1 (racemic) [Example 47, rac-erythro-[2-Amino-2-(3,4-dichloro-phenyl)-1-[4-(2,2,2-trifluoro-ethoxy)-phenyl]-ethanol] | 0.266 µM
CCO[C@H](c1ccc(-c2cncc(F)c2)cc1)[C@@H](N)c1ccc(Cl)c(Cl)c1 (racemic) [Example 99, rac-erythro-[1-(3,4-Dichloro-phenyl)-2-ethoxy-2-[4-(5-fluoro-pyridin-3-yl)-phenyl]-ethylamine trifluoroacetate] | 0.285 µM
N[C@@H](c1ccc(Cl)c(Cl)c1)[C@H](O)c1ccc(OCC2CCCO2)cc1F (mixture of isomers) [Example 28, rac-erythro-[2-Amino-2-(3,4-dichloro-phenyl)-1-[2-fluoro-4-(tetrahydro-furan-2-ylmethoxy)-phenyl]-ethanol, hydrochloride salt] | 0.33 µM
N[C@@H](c1ccc(Cl)cc1)[C@H](O)c1ccc(OC2CCOCC2)cc1 (racemic) [Example 59, rac-erythro-2-Amino-2-(4-chloro-phenyl)-1-[4-(tetrahydro-pyran-4-yloxy)-phenyl]-ethanol] | 0.054 µM
Cc1cc(OC2CCOCC2)ncc1[C@@H](O)[C@@H](N)c1ccc(Cl)c(Cl)c1 (racemic) [Example 21, rac-erythro-[2-Amino-2-(3,4-dichloro-phenyl)-1-[4-methyl-6-(tetrahydro-pyran-4-yloxy)-pyridin-3-yl]-ethanoldihydrochloride] | 0.091 µM
COc1ccc(-c2ccc([C@@H](O)[C@@H](N)c3ccc(Cl)cc3)cc2)cn1 (racemic) [Example 77, rac-erythro-2-Amino-2-(4-chloro-phenyl)-1-[4-(6-methoxy-pyridin-3-yl)-phenyl]-ethanol] | 0.814 µM
CS(=O)(=O)c1cccc(-c2ccc([C@@H](O)[C@@H](N)c3ccc(Cl)c(Cl)c3)c(F)c2)c1 (racemic) [Example 1, rac-erythro-[2-Amino-2-(3,4-dichloro-phenyl)-1-(3-fluoro-3′-methanesulfonyl-biphenyl-4-yl)-ethanol trifluoroacetate] | 0.025 µM
